Data published in paper PMC9374744, “Structural basis for receptor selectivity and inverse agonism in S1P5 receptors” (Nature Communications, 2022).

Target: T1, S1P5 (Homo sapiens, UniProt Q9H228, G231K/G234L/INS226[…]/INS240[…]/P227A/P230V/R224A/R225D/R229Q/R239A/S237M/T232D/T236K/T238R)
T1 construct: The C-terminus was truncated after Val321; hemagglutinin signal peptide (HA; […]) (N); FLAG-tag (N); Ala-Gly-Arg-Ala linker (N); PreScission cleavage site (C); 10× His tag (C, cleaved yes); made in house; host or cells: Sf9 insect cells (baculovirus, Bac-to-Bac)
T1 sequence (Q9H228 other isoform, or with tags, fused parts or gaps with the stated changes): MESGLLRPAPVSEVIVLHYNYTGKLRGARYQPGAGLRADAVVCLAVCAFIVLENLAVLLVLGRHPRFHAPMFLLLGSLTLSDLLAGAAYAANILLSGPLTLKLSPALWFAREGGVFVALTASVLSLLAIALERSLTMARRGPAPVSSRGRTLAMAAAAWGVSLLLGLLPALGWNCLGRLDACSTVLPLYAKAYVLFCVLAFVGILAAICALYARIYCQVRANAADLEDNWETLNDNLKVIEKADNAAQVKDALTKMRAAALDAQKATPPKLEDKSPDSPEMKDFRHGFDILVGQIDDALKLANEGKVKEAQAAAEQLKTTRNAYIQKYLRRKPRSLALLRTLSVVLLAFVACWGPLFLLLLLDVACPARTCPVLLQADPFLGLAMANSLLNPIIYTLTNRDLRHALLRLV
Experiment: Microscale fluorescent (CPM) thermal stability assay
Type: binding
Conditions: CPM fluorescence thermal shift; purified S1P5 crystallization construct
Method: Cells were thawed and lysed by repetitive washes (Dounce homogenization on ice, and centrifugation at 128,600×g for 30 min at 4 °C) in hypotonic buffer (10 mM HEPES pH 7.5, 20 mM KCl, and 10 mM MgCl2) and high osmotic buffer (10 mM HEPES pH 7.5, 20 mM KCl, 10 mM MgCl2, and 1 M NaCl) with an addition of protease inhibitor cocktail [PIC; 500 µM 4-(2-aminoethyl)benzenesulfonyl fluoride hydrochloride (Gold Biotechnology), 1 µM E-64 (Cayman Chemical), 1 µM leupeptin (Cayman Chemical), 150 nM aprotinin (A.G. Scientific)] with the ratio of 50 μl per 100 ml of lysis buffer. […] Stability and stabilizing effect of the ligand were measured by microscale fluorescent thermal stability assay[55] […]
Microscale fluorescent thermal stability assay[55] was conducted using a CPM dye (7-Diethylamino-3-(4-maleimidophenyl)-4-methylcoumarin, Invitrogen) dissolved in DMF at 10 mM. […] 1 µg of the target protein was added to 50 µL of working buffer (25 mM HEPES, 250 mM NaCl, 10%v/v glycerol, 0.05%w/v DDM, 0.01%w/v CHS) with CPM, and the melting curve was recorded on a Rotor-Gene Q real-time PCR cycler (Qiagen) using a temperature ramp from 28 to 98 °С with 2 °С/min rate. The fluorescence signal was measured in the Blue channel (excitation 365 nm, emission 460 nm), and the melting temperature was calculated as the maximum of the fluorescence signal derivative with respect to temperature.

O=C(O)CCCN1CCc2cccc(OCCc3cccc4ccccc34)c2CC1 [ONO-5430608, 4-{6-[2-(1-naphthyl)ethoxy]-1,2,4,5-tetrahydro-3H-3-benzazepin-3-yl} butanoic acid]
increase of the thermal stability of S1P5: 19 °C
